Measured values published in patent publication US7625948B2, “Ester compound and medicinal use thereof” (Japan Tobacco Inc., priority 2002, dated 2009).
Like-named read-outs stand apart in the source and are kept apart here.

What was measured:
[1] = molecular target: T1, Microsomal triglyceride transfer protein (MTP) from bovine liver (Bos taurus, UniProt P55156); assay: Test Example 1: inhibition of interliposomal triglyceride (TG) transfer activity by MTP (also used for metabolites in Test Example 8); type: biochemical
T1 construct: from tissue; host or cells: bovine liver
T1 sequence (P55156 12-887): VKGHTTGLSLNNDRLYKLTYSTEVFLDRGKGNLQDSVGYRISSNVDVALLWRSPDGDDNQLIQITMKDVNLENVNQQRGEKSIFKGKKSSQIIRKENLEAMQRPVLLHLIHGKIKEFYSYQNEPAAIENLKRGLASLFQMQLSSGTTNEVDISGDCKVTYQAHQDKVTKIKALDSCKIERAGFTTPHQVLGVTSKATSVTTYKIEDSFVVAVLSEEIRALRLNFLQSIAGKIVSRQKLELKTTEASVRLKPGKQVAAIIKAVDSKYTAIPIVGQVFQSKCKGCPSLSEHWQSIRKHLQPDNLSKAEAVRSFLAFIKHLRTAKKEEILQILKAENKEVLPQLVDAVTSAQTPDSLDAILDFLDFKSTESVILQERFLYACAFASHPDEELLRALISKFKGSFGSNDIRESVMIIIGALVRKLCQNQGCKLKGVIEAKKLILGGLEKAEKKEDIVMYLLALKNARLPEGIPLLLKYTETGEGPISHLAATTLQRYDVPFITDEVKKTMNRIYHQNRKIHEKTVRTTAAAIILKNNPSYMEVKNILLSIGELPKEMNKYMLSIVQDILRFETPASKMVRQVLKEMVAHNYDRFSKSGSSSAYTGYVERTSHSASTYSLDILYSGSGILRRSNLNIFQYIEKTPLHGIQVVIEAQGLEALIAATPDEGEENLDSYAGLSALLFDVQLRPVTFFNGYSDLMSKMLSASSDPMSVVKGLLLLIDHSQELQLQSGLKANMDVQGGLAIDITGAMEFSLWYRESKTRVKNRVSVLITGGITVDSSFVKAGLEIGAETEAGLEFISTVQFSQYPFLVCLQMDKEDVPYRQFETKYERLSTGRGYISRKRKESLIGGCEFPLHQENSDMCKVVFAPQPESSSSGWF
T1 sequence (P05307 21-510 partner): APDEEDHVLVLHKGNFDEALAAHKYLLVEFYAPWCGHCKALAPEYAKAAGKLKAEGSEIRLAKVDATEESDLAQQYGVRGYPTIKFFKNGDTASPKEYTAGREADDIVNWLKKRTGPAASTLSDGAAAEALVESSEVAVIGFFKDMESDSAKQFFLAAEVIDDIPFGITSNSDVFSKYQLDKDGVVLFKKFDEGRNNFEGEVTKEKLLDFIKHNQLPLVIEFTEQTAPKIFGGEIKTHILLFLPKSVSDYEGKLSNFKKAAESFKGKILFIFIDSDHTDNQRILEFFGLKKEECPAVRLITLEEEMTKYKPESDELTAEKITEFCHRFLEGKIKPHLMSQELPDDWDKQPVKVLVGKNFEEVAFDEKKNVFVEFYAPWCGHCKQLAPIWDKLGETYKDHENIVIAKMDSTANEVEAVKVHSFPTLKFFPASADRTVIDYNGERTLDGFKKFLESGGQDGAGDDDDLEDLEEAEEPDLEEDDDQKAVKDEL
Experimental: Inhibition of Interliposomal Triglyceride (TG) Transfer Activity by MTP
Microsomal triglyceride transfer protein (MTP) from bovine liver was partially purified in such a way described below. A buffer (50 mM Tris, 250 mM sucrose, 1 mM EDTA, 0.02% NaN3 (pH 7.4)) for making a homogenate preparation was added to bovine liver, and the mixture was homogenated under ice-cooling, then centrifuged at 10,000×g (4° C., 30 minutes). The supernatant was adjusted to pH 5.1 with hydrochloric acid, and stirred for 30 minutes. The solution was further centrifuged at 10,000×g (4° C., 30 minutes), and 1 mM Tris buffer was added to the precipitated residue, and the mixture was adjusted to pH 8.6 with sodium hydroxide. After addition of 2.7M ammonium sulfate solution, the mixture was stirred for 30 minutes, then centrifuged at 10,000×g (4° C., 40 minutes). The resulting supernatant was served as a crude extraction fraction of MTP and stored at −80° C. under freezing. In its practical use, the crude extraction fraction of MTP was purified by column chromatography on diethylaminoethyl (DEAE) Sepharose using FPLC (Fast Performance Liquid Chromatography) system, and the purified MTP was used for the test.
Small unilamellar-vesicle (SUV) liposome (donor, 0.25 mol % triolein, 5 mol % cardiolipin) labeled with ^14C-triolein and non-labeled SUV liposome (acceptor, 0.25 mol % triolein) were prepared. A fixed amount of donor and acceptor, and MTP were mixed with a sample dissolved in DMSO or with DMSO. The mixture was incubated in a 15 mM Tris hydrochloride buffer (pH 7.4) containing 40 mM sodium chloride, 1 mM EDTA (ethylenediaminetetraacetic acid), 0.02% NaN3 and 0.5% bovine serum albumin at 37° C. for one hour. After completion of the incubation, a suspension of DEAE cellulose (50% v/v) in 15 mM Tris hydrochloride buffer (pH 7.4) was added to the above solution, and the mixture was centrifuged to separate the donor and the acceptor. The radioactivity in the acceptor was measured by liquid scintillation counter. The value obtained by subtracting the radioactivity in the blank from the amount of radioactivity in the acceptor of a DMSO group was determined as MTP-mediated TG transfer activity, and it was compared with the value obtained by subtracting the radioactivity in the blank from the radioactivity in a sample group. The blank was prepared by adding 15 mM Tris-HCl buffer (pH 7.4) in place of MTP. Inhibition rate (%) was calculated from the values obtained according to the following equation.
Inhibition rate (%)=100×(1 minus ((radioactivity of sample group minus radioactivity of blank group)/(radioactivity of DMSO group minus radioactivity of blank group))).
50% Inhibition rate (IC50) was determined on the basis of the above equation.
Inhibitory Activity on MTP and apo B Secretion Inhibition by Metabolites
In a similar manner to Test Examples 1 and 2, the activity of metabolites was assayed.

[2] = test system: HepG2 cells; assay: Test Example 2: inhibition of apolipoprotein B secretion from HepG2 cells, ELISA (also used for metabolites in Test Example 8); type: cell-based; settings: Homo sapiens
How it was run: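 HepG2 cells cultured 24 h, then exposed 24 h to compounds or metabolites in medium with 0.5% DMSO. Secreted apo B in supernatant quantified by sandwich ELISA (HRP, ABTS, 405 nm) against purified human apo B standard; % inhibition vs DMSO group, IC50 derived.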

[3] = MTP-mediated 14C-triolein transfer between liposomes, 37° C., one hour, read-out: Test Example 1 MTP inhibition IC50
[4] = 24 hours, apo B in supernatant by ELISA, read-out: Test Example 2 Inhibition of apo B secretion IC50
[5] = main metabolites of the compounds (Test Example 8), read-out: MTP inhibition IC50
[6] = main metabolites of the compounds (Test Example 8), read-out: Inhibition of apo B secretion IC50

| Structure (SMILES) | IC50 [1, 3] [nM] | IC50 [2, 4] [nM] | IC50 [1, 5] [nM] | IC50 [2, 6] [nM] |
| --- | --- | --- | --- | --- |
| CCOC(=O)C(COC(=O)Cn1c(C)nc2c(NC(=O)c3ccccc3-c3ccc(C(F)(F)F)cc3)cccc21)(C(=O)OCC)c1ccccc1 [Example 9-2, 2-(2-{2-methyl-4-[(4′-trifluoromethylbiphenyl-2-carbonyl}amino]benzimidazol-1-yl}acetoxymethyl)-2-phenyl-malonic acid diethyl ester] | 4.2 | 450 |  |  |
| CC(C)COC(=O)C(COC(=O)Cc1ccc(NC(=O)c2ccccc2-c2ccc(C(F)(F)F)cc2)cc1)(C(=O)OCC(C)C)c1ccccc1 [Example 1-63] | 16 | 90 |  |  |
| COc1cc(CC(=O)O)ccc1NC(=O)c1ccccc1-c1ccc(C(F)(F)F)cc1 |  |  | > 1000 | > 10000 |
| CCOC(=O)C(COC(=O)Cn1ccc2c(NC(=O)c3ccccc3-c3ccc(C(F)(F)F)cc3)cccc21)(C(=O)OCC)c1ccccc1 [Example 9, 2-Phenyl-2-(2-{4-[(4′-trifluoromethylbiphenyl-2-carbonyl)amino]indol-1-yl}acetoxymethyl)malonic acid diethyl ester] | 11 | 260 |  |  |
| CCOC(=O)C(COC(=O)Cn1cnc2c(NC(=O)c3ccccc3-c3ccc(C(F)(F)F)cc3)cccc21)(C(=O)OCC)c1ccccc1 [Example 9-11] | 20 | 210 |  |  |
| CC(C)NC(=O)C(COC(=O)Cc1ccc(NC(=O)c2ccccc2-c2ccc(C(F)(F)F)cc2)cc1)(C(=O)NC(C)C)c1ccccc1 [Example 1-25] | 5 | 8.4 |  |  |
| CCNC(=O)C(CCOC(=O)c1ccc(NC(=O)c2ccccc2-c2ccc(C(F)(F)F)cc2)cc1)(C(=O)NCC)c1ccccc1 [Example 6-19] | 3.2 | 35 |  |  |
| O=C(Cc1ccc(NC(=O)c2ccccc2-c2ccc(C(F)(F)F)cc2)cc1)OCC(C(=O)NCC(F)(F)F)c1ccccc1 (stereo not shown) [Example 1-8] | 37.5 | 720 |  |  |
| O=C(N[C@H]1CC[C@H](C(=O)OCCC2(C(=O)NCC(F)(F)F)c3ccccc3-c3ccccc32)CC1)c1ccccc1-c1ccc(C(F)(F)F)cc1 [Example 7, Trans-4-[(4′-trifluoromethylbiphenyl-2-carbonyl)amino]cyclohexanecarboxylic acid 2-[9-(2,2,2-trifluoroethylcarbamoyl)-9H-fluoren-9-yl]ethyl ester] | 4.97 | 60 |  |  |
| CCCCOc1ccccc1C(=O)Nc1ccc(CC(=O)OCC(C(=O)NCC)(C(=O)NCC)c2ccccc2)cc1 [Example 1-52] | 10 | 690 |  |  |
| CCOC(=O)C(CCOC(=O)c1ccc(NC(=O)c2ccccc2-c2ccc(C(F)(F)F)cc2)c(C)c1)(C(=O)OCC)c1ccccc1 [Example 6-15] | 2 | 57 |  |  |
| CCOC(=O)C(COC(=O)Cc1ccc(NC(=O)c2ccccc2-c2ccc(C(F)(F)F)cc2)c(OCc2ccccc2)c1)(C(=O)OCC)c1ccccc1 [Example 3-14] | 13 | 64 |  |  |
| CCOC(=O)C(CCOC(=O)C1CCC(NC(=O)c2ccccc2-c2ccc(C(F)(F)F)cc2)CC1)(C(=O)OCC)c1ccccc1 (stereo not shown) [Example 7-5] | 16.2 | 237 |  |  |
| CCOC(=O)C(COC(=O)CN1CCC(NC(=O)c2ccccc2-c2ccc(C(F)(F)F)cc2)CC1)(C(=O)OCC)c1ccccc1 [Example 8, 2-Phenyl-2-(2-{4-[(4′-trifluoromethylbiphenyl-2-carbonyl)amino]piperidin-1-yl}acetoxymethyl)malonic acid diethyl ester] | 33 | 595 |  |  |
| CCCNC(=O)C(CO)(C(=O)NCCC)c1ccccc1 |  |  | > 1000 | > 10000 |
| CC(C)OC(=O)C(COC(=O)Cc1ccc(NC(=O)c2ccccc2-c2ccc(C(F)(F)F)cc2)cc1)(C(=O)OC(C)C)c1ccccc1 [Example 1-11] | 32 | 22 |  |  |
| CC(C(=O)OCC1(C(=O)NCC(F)(F)F)c2ccccc2-c2ccccc21)c1ccc(NC(=O)c2ccccc2-c2ccc(C(F)(F)F)cc2)cc1 (stereo not shown) [Example 1-7] | 7.55 | 330 |  |  |
